Measured values published in US20110124653A1, “ARYL-SULPHONAMIDIC DIMERS AS METALLOPROTEASES INHIBITORS” (BRACCO IMAGING S.P.A., priority 2008, published 2011).

Experiments:
Test in all cases: MMP inhibition assay, fluorogenic substrate FS-6
Assay type in all cases: biochemical
Conditions in all cases: substrate FS-6 (Mca-Lys-Pro-Leu-Gly-Leu-Dpa-Ala-Arg-NH2), enzyme and inhibitor incubated 4 h at 25° C., triplicate
[1] = target: T1, MMP-2 (Homo sapiens, UniProt P08253)
T1 construct: Prof; Gillian Murphy (Department of Oncology, University of Cambridge, UK)
T1 sequence (P08253 110-660): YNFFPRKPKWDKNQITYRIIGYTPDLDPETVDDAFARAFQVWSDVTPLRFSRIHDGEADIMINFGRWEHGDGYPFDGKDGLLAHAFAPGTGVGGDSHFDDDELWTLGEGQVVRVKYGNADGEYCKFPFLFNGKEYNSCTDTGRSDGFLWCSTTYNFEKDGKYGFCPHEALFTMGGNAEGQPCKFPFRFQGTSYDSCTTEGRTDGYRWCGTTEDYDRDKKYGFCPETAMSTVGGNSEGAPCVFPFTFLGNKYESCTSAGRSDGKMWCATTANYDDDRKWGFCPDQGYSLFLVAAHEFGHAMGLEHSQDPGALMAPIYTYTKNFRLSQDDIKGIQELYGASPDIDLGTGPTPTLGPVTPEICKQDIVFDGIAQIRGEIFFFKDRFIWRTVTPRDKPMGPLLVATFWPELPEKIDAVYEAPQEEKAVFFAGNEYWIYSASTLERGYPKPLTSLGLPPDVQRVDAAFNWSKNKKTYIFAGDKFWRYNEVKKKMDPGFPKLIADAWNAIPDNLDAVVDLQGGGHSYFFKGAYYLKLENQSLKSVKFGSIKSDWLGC
Protocol: (§1) As reported therein, the inhibitory activity of the compounds of the invention was evaluated on the known fluorogenic substrate (Mca-Lys-Pro-Leu-Gly-Leu-Dpa-Ala-Arg-NH2), shortly referred to as FS-6 (see, as a reference, U. Neumann, Analytical Biochem. 2004, 328, 166-173).
(§2) Recombinant human pro-MMP-2 was supplied by Prof. Gillian Murphy (Department of Oncology, University of Cambridge, UK), while pro-MMP-13 and pro-MMP-14 were purchased from Calbiochem. […] Pro-MMP-14 was activated with trypsin 5 μg/ml for 15 min at 37° C. followed by soybean trypsin inhibitor (SBTI) 23 μg/ml. For assay measurements, the inhibitor stock solutions (DMSO, 100 mM) were further diluted, at seven different concentrations (0.01 nM-100 μM) for each MMP in the fluorimetric assay buffer (FAB: Tris 50 mM, pH=7.5, NaCl 150 mM, CaCl2 10 mM, Brij 35 0.05% and DMSO 1%). Activated enzyme (final concentration 2.9 nM for MMP-2, 1 nM for MMP-14, 0.33 nM for MMP-13) and inhibitor solutions were incubated in the assay buffer for 4 h at 25° C. After the addition of 200 μM solution of the fluorogenic substrate Mca-Lys-Pro-Leu-Gly-Leu-Dpa-Ala-Arg-NH2 (Bachem) (see, for a reference, Neumann, U.; Kubota, H.; Frei, K.; Ganu, V.; Leppert, D. Anal. Biochem. 2004, 328, 166) for all of the enzymes in DMSO (final concentration 2 μM), the hydrolysis was monitored every 15 sec. for 20 min recording the increase in fluorescence (λex=325 nm, λem=395 nm) using a Molecular Device SpectraMax Gemini XS plate reader.
(§3) The assays were performed in triplicate, in a total volume of 200 μl per well, in 96-well microtitre plates (Corning, black, NBS). Control wells lack inhibitor. The MMP inhibition activity was expressed in relative fluorescent units (RFU). Percent of inhibition was calculated from control reactions without the inhibitor. IC50 was determined using the formula: Vi/Vo=1/(1+[I]/IC50), where Vi is the initial velocity of substrate cleavage in the presence of the inhibitor at concentration [I] and Vo is the initial velocity in the absence of the inhibitor. Results were analyzed using SoftMax Pro software and GraFit software.

[2] = target: MMP-13 (Homo sapiens, UniProt P45452)
Protocol: as §1, §2, §3

[3] = target: T2, MMP-14 (Homo sapiens, UniProt P50281)
T2 construct: purchased Calbiochem
Protocol: as §1, §2, §3

Compound | IC50 [1] [nM] | IC50 [2] [nM] | IC50 [3] [nM]
O=C(NCC[C@H](C(=O)NO)N(OCCOCCN1CCN(C(=O)c2cccc(C(=O)N3CCN(CCOCCON([C@H](CCNC(=O)OCc4ccccc4)C(=O)NO)S(=O)(=O)c4ccc(-c5ccccc5)cc4)CC3)c2)CC1)S(=O)(=O)c1ccc(-c2ccccc2)cc1)OCc1ccccc1 [2b - example 17] | 3.6 | 1.93 | 
O=C(CCCNC(=O)c1cccc(C(=O)NCCCC(=O)NCC[C@@H](NS(=O)(=O)c2ccc(-c3ccccc3)cc2)C(=O)NO)c1)NCC[C@@H](NS(=O)(=O)c1ccc(-c2ccccc2)cc1)C(=O)NO [1b - example 16] | 3.7 | 2.4 | 31
